The source made the active and inactive calls. The calls are words filed in the database; no cut-off is given here.
Tests used:
Rattus norvegicus [1] = assay: Cardiotoxicity in Wistar rat assessed as effect on heart rate at 5 mg/kg, iv measured after 5 mins (reference value: 323 to 374.5 bpm); format: toxicity, organism-based; conditions: in vivo
Rattus norvegicus [2] = assay: Cardiotoxicity in Wistar rat assessed as effect on QTC interval time at 5 mg/kg, iv measured after 15 mins (reference value: 136.7 to 146.2 ms); format: toxicity, organism-based; conditions: in vivo, 0.25 h
Rattus norvegicus [3] = assay: Hypotensive activity in normotensive Wistar rat assessed as diastolic blood pressure at 5 mg/kg, iv measured after 10 mins (reference value: 86.5 to 119.4 mmHg); format: functional
Rattus norvegicus [4] = assay: Hypotensive activity in normotensive Wistar rat assessed as systolic blood pressure at 5 mg/kg, iv measured after 5 mins (reference value: 119.2 to 148.6 mmHg); format: functional
Rattus norvegicus [5] = assay: Hypotensive activity in normotensive Wistar rat assessed as systolic blood pressure at 5 mg/kg, iv measured after 20 mins (reference value: 119.2 to 148.6 mmHg); format: functional
[6] = target: Adrenergic receptor alpha-2 (Rattus norvegicus) (UniProt P22086+P19328+P22909); assay: Displacement of [3H]-clonidine from adrenergic alpha2 receptor in Wistar rat cortex at 10^-5 M incubated for 25 mins by microbeta liquid scintillation counting analysis
Rattus norvegicus [7] = assay: Hypotensive activity in normotensive Wistar rat assessed as diastolic blood pressure at 5 mg/kg, iv measured after 5 mins (reference value: 86.5 to 119.4 mmHg); format: functional
Rattus norvegicus [8] = assay: Cardiotoxicity in Wistar rat assessed as effect on QTC interval time at 5 mg/kg, iv measured after 5 mins (reference value: 136.7 to 146.2 ms); format: toxicity, organism-based; conditions: in vivo
Rattus norvegicus [9] = assay: Cardiotoxicity in Wistar rat assessed as effect on PQ interval time at 5 mg/kg, iv measured after 5 mins (reference value: 52 to 57 ms); format: toxicity, organism-based; conditions: in vivo
[10] = target: T1, Adrenergic receptor alpha-1 (Rattus norvegicus, UniProt P15823+P23944+P43140); assay: Displacement of [3H][…]prazosin from adrenergic alpha1 receptor in Wistar rat cortex incubated for 30 mins by microbeta liquid scintillation counting analysis
T1 sequence (P15823 whole entry): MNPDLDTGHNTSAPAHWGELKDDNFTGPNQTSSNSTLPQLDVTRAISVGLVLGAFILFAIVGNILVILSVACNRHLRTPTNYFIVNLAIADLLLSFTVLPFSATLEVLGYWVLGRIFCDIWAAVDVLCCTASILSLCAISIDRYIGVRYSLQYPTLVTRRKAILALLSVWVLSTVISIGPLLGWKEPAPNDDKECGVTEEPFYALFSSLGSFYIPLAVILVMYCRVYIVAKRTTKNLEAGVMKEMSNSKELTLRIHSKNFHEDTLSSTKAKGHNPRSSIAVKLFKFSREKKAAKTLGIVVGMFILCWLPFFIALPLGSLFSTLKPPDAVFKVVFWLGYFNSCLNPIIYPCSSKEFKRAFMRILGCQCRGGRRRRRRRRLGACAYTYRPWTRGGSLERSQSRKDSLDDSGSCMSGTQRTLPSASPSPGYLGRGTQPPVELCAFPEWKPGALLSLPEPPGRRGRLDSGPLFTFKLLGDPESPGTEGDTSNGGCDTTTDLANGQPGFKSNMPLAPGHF
T1 sequence (P23944 whole entry): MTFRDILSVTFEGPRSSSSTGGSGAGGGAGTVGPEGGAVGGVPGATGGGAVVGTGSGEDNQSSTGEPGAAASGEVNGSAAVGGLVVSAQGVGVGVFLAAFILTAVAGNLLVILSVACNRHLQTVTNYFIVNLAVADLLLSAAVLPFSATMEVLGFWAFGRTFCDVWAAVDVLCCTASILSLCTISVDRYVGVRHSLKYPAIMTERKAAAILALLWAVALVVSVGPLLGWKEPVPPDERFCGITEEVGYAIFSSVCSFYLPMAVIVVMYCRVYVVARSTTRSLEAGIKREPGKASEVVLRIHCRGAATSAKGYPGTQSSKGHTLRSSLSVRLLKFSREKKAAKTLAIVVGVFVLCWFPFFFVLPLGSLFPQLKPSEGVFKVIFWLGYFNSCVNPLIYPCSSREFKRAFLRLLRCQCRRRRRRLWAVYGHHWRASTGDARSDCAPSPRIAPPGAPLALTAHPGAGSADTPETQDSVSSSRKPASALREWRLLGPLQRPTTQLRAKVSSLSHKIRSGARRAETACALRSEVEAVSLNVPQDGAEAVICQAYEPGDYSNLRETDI
T1 sequence (P43140 whole entry): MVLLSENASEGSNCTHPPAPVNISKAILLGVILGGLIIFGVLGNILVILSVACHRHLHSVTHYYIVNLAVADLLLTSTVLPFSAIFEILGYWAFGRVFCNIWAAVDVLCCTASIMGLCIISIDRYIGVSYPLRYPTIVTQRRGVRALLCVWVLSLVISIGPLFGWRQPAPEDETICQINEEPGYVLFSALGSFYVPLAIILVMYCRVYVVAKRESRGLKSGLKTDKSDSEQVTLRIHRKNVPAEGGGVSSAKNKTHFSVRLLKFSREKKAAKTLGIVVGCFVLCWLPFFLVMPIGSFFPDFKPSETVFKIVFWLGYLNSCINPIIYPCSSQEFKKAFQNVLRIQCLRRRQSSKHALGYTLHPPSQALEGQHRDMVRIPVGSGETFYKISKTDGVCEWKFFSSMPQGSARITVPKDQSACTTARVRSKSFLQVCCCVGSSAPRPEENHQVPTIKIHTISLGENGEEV

Rattus norvegicus [11] = assay: Hypotensive activity in normotensive Wistar rat assessed as systolic blood pressure at 5 mg/kg, iv measured after 30 mins (reference value: 119.2 to 148.6 mmHg); format: functional
Rattus norvegicus [12] = assay: Hypotensive activity in normotensive Wistar rat assessed as systolic blood pressure at 5 mg/kg, iv measured after 60 mins (reference value: 119.2 to 148.6 mmHg); format: functional
Rattus norvegicus [13] = assay: Hypotensive activity in normotensive Wistar rat assessed as diastolic blood pressure at 5 mg/kg, iv measured after 30 mins (reference value: 86.5 to 119.4 mmHg); format: functional
Blood = assay: Anti-aggregative activity in Wistar rat whole blood assessed as inhibition of collagen-induced aggregation preincubated for 3 mins followed by collagen induction measured for 6 mins; format: functional, tissue-based
Rattus norvegicus [14] = assay: Cardiotoxicity in Wistar rat assessed as effect on QT interval time at 5 mg/kg, iv measured after 5 mins (reference value: 57.7 to 61 ms); format: toxicity, organism-based; conditions: in vivo
Rattus norvegicus [15] = assay: Cardiotoxicity in Wistar rat assessed as effect on QT interval time at 5 mg/kg, iv measured after 15 mins (reference value: 57.7 to 61 ms); format: toxicity, organism-based; conditions: in vivo, 0.25 h
Rattus norvegicus [16] = assay: Cardiotoxicity in Wistar rat assessed as effect on heart rate at 5 mg/kg, iv measured after 1 min (reference value: 323 to 374.5 bpm); format: toxicity, organism-based; conditions: in vivo
[17] = target: Beta-1 adrenergic receptor (Rattus norvegicus, UniProt P18090); assay: Displacement of [3H]-CGP-12177 from adrenergic beta1 receptor in Wistar rat cortex incubated for 60 mins by microbeta liquid scintillation counting analysis
Beta-1 adrenergic receptor, sequence (P18090 whole entry): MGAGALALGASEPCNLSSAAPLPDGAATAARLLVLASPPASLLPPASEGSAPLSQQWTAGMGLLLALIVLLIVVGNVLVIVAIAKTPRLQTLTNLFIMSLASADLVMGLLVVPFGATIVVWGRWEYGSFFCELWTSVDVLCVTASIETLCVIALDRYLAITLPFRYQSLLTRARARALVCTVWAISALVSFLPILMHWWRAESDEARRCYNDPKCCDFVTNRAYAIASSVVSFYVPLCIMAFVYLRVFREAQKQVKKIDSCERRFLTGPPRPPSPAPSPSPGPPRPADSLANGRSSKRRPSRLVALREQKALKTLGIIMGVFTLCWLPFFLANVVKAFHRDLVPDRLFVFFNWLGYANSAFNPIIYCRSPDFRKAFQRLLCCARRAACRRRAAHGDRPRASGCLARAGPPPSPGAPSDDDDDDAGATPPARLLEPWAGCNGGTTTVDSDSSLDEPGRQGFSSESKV

Rattus norvegicus [18] = assay: Cardiotoxicity in Wistar rat assessed as effect on QRS interval time at 5 mg/kg, iv measured after 1 min (reference value: 16.7 to 20.7 ms); format: toxicity, organism-based; conditions: in vivo

SMILES | Activity (Rattus norvegicus [1]) [bpm] | Time (Rattus norvegicus [2]) [ms] | Activity (Rattus norvegicus [3]) [mmHg] | Activity (Rattus norvegicus [4]) [mmHg] | Activity (Rattus norvegicus [5]) [mmHg] | Activity [6] | Activity (Rattus norvegicus [7]) [mmHg] | Time (Rattus norvegicus [8]) [ms] | Time (Rattus norvegicus [9]) [ms] | IC50 [10] [nM] | Activity (Rattus norvegicus [11]) [mmHg] | Activity (Rattus norvegicus [12]) [mmHg] | Activity (Rattus norvegicus [13]) [mmHg] | IC50 (Blood) [nM] | inhibition (Blood) | Time (Rattus norvegicus [14]) [ms] | Time (Rattus norvegicus [15]) [ms] | Activity (Rattus norvegicus [16]) [bpm] | Ki [17] [nM] | Time (Rattus norvegicus [18]) [ms] | other results
Cl.O=c1c2ccccc2oc2cc(OCC(O)CN3CCN(c4ccccn4)CC3)ccc12 (racemic) | 313 | 133.9 | 80.5 | 114.7 | 108.8 | inactive | 81 | 133.3 | 54.7 | 355.6 | 108.7 | 102.5 | 79.5 | 77000 | Dose-dependent effect | 58.3 | 59 | 340.7 | 1570 | 18.7 | –
COc1ccccc1OCCNCC(O)COc1cccc2c(=O)c3ccccc3oc12.Cl (racemic) | 296 | 131.1 | 73 | 121.6 | 97.7 | inactive | 89.7 | 148.3 | 58 | 109.5 | 94.5 | 106.2 | 77.2 | 49500 | Dose-dependent effect | 67.3 | 63.3 | 307 | 852 | 19 | Ki [10]: 875.5 nM; IC50 [17]: 178 nM
COc1ccccc1CNCC(O)COc1cccc2c(=O)c3ccccc3oc12.Cl (racemic) | 243.7 | 139.3 | 107 | 149.3 | 133 | inactive | 107.2 | 129.8 | 63.3 | 1870 | 126 | 125.3 | 96 | 86800 | Dose-dependent effect | 64.7 | 66.7 | 246 | 10.8 | 22 | IC50 [17]: 179 nM
COc1ccc(CCNCC(O)COc2cccc3c(=O)c4ccccc4oc23)cc1OC.Cl (racemic) | 254.7 | 132.7 | 105 | 135.4 | 127 | inactive | 101.4 | 138.4 | 58 | – | 128 | 129.8 | 96.2 | – | – | 66.7 | 63.3 | 262.7 | 357 | 22.8 | Ki [10]: 274 nM; IC50 [17]: 106 nM
CC(C)(C)NCC(O)COc1cccc2c(=O)c3ccccc3oc12.Cl (racemic) | – | – | – | – | – | inactive | – | – | – | – | – | – | – | 33000 | Dose-dependent effect | – | – | – | 5.4 | – | Ki [10]: 814 nM
COc1ccccc1CCNCC(O)COc1cccc2c(=O)c3ccccc3oc12.Cl (racemic) | 336 | 148.5 | 101.8 | 146.2 | 128.2 | inactive | 108.6 | 148.2 | 52.5 | 349.8 | 126 | 117 | 97.2 | 33400 | Dose-dependent effect | 61 | 60 | 356 | 359 | 18 | Ki [10]: 4676 nM; IC50 [17]: 426 nM

From ChEMBL document CHEMBL4118148, “Design, synthesis and cardiovascular evaluation of some aminoisopropanoloxy derivatives of xanthone” (Bioorg Med Chem, 2018)
